{"source": "paper PMC4452912", "about": "(Viruses, 2015)", "key": {"CYP2D6": {"target": "CYP2D6 (Homo sapiens, UniProt P10635)", "sequence (P10635 whole entry)": "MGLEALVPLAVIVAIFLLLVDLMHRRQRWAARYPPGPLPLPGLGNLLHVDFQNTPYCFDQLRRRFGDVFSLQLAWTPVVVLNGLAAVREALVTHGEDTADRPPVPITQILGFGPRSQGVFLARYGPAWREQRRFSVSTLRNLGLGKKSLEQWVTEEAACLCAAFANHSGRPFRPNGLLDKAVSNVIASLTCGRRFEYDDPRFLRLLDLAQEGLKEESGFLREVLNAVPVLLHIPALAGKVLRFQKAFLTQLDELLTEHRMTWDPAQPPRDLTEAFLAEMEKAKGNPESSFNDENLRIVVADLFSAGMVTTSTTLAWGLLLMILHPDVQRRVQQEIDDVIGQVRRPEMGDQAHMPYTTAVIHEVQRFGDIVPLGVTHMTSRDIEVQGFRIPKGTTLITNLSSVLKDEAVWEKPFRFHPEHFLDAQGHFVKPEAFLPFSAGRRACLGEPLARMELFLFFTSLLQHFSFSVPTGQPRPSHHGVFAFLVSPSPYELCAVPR", "assay": "CYP inhibition in human liver microsomes, CYP2D6", "type": "in vitro ADME"}, "CYP2C9": {"target": "CYP2C9 (Homo sapiens, UniProt P11712)", "sequence (P11712 whole entry)": "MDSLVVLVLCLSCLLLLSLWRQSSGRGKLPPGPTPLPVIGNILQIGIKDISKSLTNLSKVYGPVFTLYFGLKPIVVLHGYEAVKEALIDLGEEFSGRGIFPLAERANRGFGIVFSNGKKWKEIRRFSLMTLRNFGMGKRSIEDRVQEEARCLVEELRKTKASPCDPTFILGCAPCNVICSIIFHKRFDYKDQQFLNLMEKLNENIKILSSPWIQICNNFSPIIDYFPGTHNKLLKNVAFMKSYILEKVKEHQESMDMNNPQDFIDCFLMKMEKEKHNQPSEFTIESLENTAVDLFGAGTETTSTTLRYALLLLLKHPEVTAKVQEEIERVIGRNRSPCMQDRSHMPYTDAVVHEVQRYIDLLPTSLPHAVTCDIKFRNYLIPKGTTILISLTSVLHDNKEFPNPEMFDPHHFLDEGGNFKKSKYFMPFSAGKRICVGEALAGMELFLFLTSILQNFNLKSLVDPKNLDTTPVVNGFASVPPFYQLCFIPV", "assay": "CYP inhibition in human liver microsomes, CYP2C9", "type": "in vitro ADME"}, "in vitro [1]": {"assay": "in vitro", "type": "in vitro ADME", "details": "dog, microsomes"}, "in vitro [2]": {"assay": "in vitro", "type": "in vitro ADME", "details": "human, microsomes"}, "[3]": {"assay": "Maximum tolerated dose in guinea pigs", "type": "in vivo, Hartley guinea pigs", "details": "for MTD at 7 days: female, Hartley, guinea pig, in vivo, single bolus"}, "[4]": {"test_system": "ER α-glucosidases I and II", "assay": "Cellular free oligosaccharide (FOS) assay in HL60 cells", "type": "cell-based, human", "details": "24 h, mono- and tri-glucosylated FOS"}, "[5]": {"test_system": "Venezuelan Equine Encephalitis virus (VEEV, TC-83 vaccine strain)", "assay": "microbe, parasite or virus in culture", "type": "cell-based", "details": "Vero, 72 h, read-out: IC50 VEEV"}, "in vitro [6]": {"assay": "in vitro", "type": "cell-based, canine", "details": "dog"}, "hERG": {"target": "T1, hERG (Homo sapiens, UniProt Q12809)", "T1 construct": "expressed in transfected cells; host or cells: CHO", "T1 sequence (Q12809 whole entry)": "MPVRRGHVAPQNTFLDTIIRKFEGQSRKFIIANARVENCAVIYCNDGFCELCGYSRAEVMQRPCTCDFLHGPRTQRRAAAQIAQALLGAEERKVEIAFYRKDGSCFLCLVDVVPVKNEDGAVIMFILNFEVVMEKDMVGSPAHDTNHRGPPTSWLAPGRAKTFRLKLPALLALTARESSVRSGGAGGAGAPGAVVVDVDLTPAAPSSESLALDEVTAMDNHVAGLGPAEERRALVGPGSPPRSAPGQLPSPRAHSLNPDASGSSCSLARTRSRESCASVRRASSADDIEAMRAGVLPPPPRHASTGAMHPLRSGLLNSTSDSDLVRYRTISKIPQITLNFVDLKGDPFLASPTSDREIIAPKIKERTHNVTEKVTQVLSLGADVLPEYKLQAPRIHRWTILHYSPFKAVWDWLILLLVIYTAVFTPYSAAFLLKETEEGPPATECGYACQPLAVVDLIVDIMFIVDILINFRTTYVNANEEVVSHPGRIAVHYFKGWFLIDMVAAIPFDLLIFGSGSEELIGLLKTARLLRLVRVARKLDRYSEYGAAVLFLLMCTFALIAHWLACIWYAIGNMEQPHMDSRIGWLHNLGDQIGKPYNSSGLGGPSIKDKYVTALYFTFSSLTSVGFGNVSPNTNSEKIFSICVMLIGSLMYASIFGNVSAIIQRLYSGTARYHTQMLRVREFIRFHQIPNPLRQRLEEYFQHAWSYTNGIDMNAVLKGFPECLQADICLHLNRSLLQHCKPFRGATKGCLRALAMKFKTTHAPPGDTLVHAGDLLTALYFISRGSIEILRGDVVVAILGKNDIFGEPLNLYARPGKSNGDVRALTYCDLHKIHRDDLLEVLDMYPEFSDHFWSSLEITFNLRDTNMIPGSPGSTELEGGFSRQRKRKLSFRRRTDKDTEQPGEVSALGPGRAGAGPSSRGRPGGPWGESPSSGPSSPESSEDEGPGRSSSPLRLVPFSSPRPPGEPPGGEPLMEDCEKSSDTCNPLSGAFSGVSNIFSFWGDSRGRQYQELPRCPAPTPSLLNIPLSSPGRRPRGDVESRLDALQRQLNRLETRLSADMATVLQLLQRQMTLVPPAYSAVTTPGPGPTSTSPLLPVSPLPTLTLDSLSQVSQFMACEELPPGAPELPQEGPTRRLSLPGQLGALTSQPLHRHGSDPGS", "assay": "Functional hERG assay, automated whole-cell patch clamp in CHO cells", "type": "cell-based"}, "[7]": {"assay": "10 day repeat dose oral safety study in mice", "type": "in vivo, Swiss Albino mice", "details": "male mice"}, "[8]": {"test_system": "circulating cytokines and chemokines", "assay": "Serum cytokine levels in DENV infected AG129 mice (23-plex)", "type": "in vivo", "details": "100 mg/kg TID"}, "DENV2 strain S221": {"test_system": "DENV2 strain S221", "assay": "Dengue viral load by qRT-PCR in serum and tissues of AG129 mice", "type": "in vivo", "details": "100 mg/kg TID"}, "ER α-glucosidase I": {"target": "T2, ER α-glucosidase I (Rattus norvegicus, UniProt O88941)", "T2 sequence (O88941 1-834)": "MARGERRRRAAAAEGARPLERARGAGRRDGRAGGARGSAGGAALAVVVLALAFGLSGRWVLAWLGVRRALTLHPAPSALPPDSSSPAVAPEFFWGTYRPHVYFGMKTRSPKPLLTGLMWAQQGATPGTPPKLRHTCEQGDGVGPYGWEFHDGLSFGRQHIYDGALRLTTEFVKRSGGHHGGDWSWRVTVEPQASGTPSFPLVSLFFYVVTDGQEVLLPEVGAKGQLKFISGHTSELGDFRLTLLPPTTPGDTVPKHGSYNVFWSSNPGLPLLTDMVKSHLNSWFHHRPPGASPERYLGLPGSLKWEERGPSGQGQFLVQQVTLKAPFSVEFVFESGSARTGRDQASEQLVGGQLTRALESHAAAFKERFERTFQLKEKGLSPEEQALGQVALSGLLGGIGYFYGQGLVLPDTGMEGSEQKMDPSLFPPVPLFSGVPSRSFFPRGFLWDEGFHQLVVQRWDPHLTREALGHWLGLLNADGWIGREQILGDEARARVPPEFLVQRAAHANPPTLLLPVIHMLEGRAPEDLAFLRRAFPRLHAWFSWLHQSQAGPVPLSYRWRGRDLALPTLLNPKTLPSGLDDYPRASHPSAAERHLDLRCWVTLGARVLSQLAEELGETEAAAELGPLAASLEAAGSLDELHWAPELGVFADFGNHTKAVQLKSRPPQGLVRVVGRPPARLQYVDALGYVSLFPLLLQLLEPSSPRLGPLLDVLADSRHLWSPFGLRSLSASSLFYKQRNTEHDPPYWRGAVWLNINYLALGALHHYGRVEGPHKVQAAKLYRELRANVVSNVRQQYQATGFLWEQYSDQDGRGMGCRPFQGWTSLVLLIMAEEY", "assay": "Purified enzyme inhibition, ER α-glucosidase I", "type": "biochemical"}, "in vitro [9]": {"assay": "in vitro", "type": "in vitro ADME", "details": "human, plasma"}, "in vitro [10]": {"assay": "in vitro", "type": "in vitro ADME", "details": "mouse, plasma"}, "CYP3A4": {"target": "CYP3A4 (Homo sapiens, UniProt P08684)", "sequence (P08684 whole entry)": "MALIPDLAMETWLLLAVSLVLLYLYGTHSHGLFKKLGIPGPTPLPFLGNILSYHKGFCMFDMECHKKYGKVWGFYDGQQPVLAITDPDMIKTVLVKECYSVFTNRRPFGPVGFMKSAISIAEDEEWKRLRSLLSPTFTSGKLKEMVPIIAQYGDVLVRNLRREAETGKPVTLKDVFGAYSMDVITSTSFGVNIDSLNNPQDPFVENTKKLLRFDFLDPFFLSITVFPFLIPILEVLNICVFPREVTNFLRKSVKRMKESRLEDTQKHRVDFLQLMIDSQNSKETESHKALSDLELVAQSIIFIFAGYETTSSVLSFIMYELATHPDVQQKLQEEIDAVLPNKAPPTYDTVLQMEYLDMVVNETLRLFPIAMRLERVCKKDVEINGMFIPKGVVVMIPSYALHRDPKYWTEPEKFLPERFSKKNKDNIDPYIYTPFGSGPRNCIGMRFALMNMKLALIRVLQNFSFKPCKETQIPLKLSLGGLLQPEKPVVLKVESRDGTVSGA", "assay": "CYP inhibition in human liver microsomes, CYP3A4", "type": "in vitro ADME"}, "[11]": {"details": "100 mg/kg PO TID 10 days, vs control"}, "[12]": {"details": "72 h post infection, vs vehicle"}}}
{"smiles": "OC[C@@H]1[C@@H](O)[C@H](O)[C@@H](O)CN1CCCCCCCCC1CCCO1", "note": "(stereo partly shown) [UV-12]", "values": [{"measurement": "IC50", "setting": "CYP2D6", "result": "> 100", "unit": "µM"}, {"measurement": "IC50", "setting": "CYP2C9", "result": "> 100", "unit": "µM"}, {"measurement": "Liver microsome metabolic stability CLintr", "setting": "in vitro [1]", "result": "<0.6", "unit": "mL/min/g liver"}, {"measurement": "half-life at 0.5 µM", "setting": "in vitro [1]", "result": "> 30", "unit": "min"}, {"measurement": "parent drug remained after 30 min", "setting": "in vitro [1]; 0.5 h, 0.5 µM", "result": 100, "unit": "%"}, {"measurement": "Liver microsome metabolic stability CLintr", "setting": "in vitro [2]", "result": "<0.6", "unit": "mL/min/g liver"}, {"measurement": "half-life at 0.5 µM", "setting": "in vitro [2]", "result": "> 30", "unit": "min"}, {"measurement": "parent drug remained after 30 min", "setting": "in vitro [2]; 0.5 h, 0.5 µM", "result": 100, "unit": "%"}, {"measurement": "clinical signs and mortality, 7 days observation", "setting": "[3]; IM 20-100 mg/kg, IV 10-80 mg/kg", "result": "no clinical signs of toxicity or mortality"}, {"measurement": "MTD at 7 days", "setting": "[3]; IV route", "result": "> 80", "unit": "mg/kg"}, {"measurement": "MTD at 7 days", "setting": "[3]; im, intramuscular route", "result": "> 100", "unit": "mg/kg"}, {"measurement": "inhibition of ER α-glucosidase enzymes in cell-based FOS assay", "setting": "[4]", "result": "inhibited"}, {"measurement": "IC50", "setting": "[5]", "result": 69.4, "unit": "µM"}, {"measurement": "CC50 at 5 days", "setting": "in vitro [6]", "result": "> 500", "unit": "µM"}, {"measurement": "inhibition at 30 µM", "setting": "hERG; human, CHO cells stably transfected with hERG, 30 μM, read-out: inhibition of hERG current", "result": 18.2, "unit": "%"}, {"measurement": "inhibition at 100 µM", "setting": "hERG; human, CHO cells stably transfected with hERG, 100 μM, read-out: inhibition of hERG current", "result": 4.6, "unit": "%"}, {"measurement": "inhibition at 300 µM", "setting": "hERG; human, CHO cells stably transfected with hERG, 300 μM, read-out: inhibition of hERG current", "result": 19.1, "unit": "%"}, {"measurement": "IC50", "setting": "hERG; patch clamp, CHO-hERG, read-out: hERG Inhibition", "result": "> 300", "unit": "µM"}, {"measurement": "average weight lost at end of treatment", "setting": "[7]; 100 mg/kg PO TID 10 days", "result": 1.72, "unit": "g"}, {"measurement": "thymus finding at necropsy/histopathology", "setting": "[7]; 100 mg/kg PO TID 10 days, associated with decreased thymus weight", "result": "lymphoid depletion"}, {"measurement": "average weight lost at end of treatment", "setting": "[7]; 100 mg/kg PO TID 10 days, not statistically significant", "result": 4.53, "unit": "%"}, {"measurement": "decreased ALP", "setting": "[7]; [11]", "result": 45, "unit": "%"}, {"measurement": "decreased glucose", "setting": "[7]; [11]", "result": 29, "unit": "%"}, {"measurement": "increased AST", "setting": "[7]; [11]", "result": 76, "unit": "%"}, {"measurement": "mortality, general health, body weights, food consumption", "setting": "[7]; 100 mg/kg PO three times daily, 10 days", "result": "neither mortality nor any noteworthy effects"}, {"measurement": "Levels of IL-9 and eotaxin", "setting": "[8]", "result": "not different"}, {"measurement": "reduction in MCP-1", "setting": "[8]; 72 h, p = 0.0641", "result": "not significant"}, {"measurement": "KC levels", "setting": "[8]; 72 h only", "result": "significantly higher"}, {"measurement": "Levels of IFN-γ", "setting": "[8]; only at 72 h", "result": "significantly reduced"}, {"measurement": "MIP-1β, RANTES, and IL-10 levels", "setting": "[8]; only at 96 h", "result": "reduced"}, {"measurement": "overall circulating cytokine levels", "setting": "[8]; vs vehicle", "result": "dampened"}, {"measurement": "viral loads in serum, liver or spleens", "setting": "DENV2 strain S221; 72 and 96 h", "result": "not reduced"}, {"measurement": "decrease in viral load, kidneys", "setting": "DENV2 strain S221; [12]", "result": 12.9, "unit": "fold"}, {"measurement": "decrease in viral load, small intestine", "setting": "DENV2 strain S221; [12]", "result": 6.1, "unit": "fold"}, {"measurement": "increase in virus titers, spleens", "setting": "DENV2 strain S221; 72 h time point", "result": 5, "unit": "fold"}, {"measurement": "decrease in viral load, kidneys", "setting": "DENV2 strain S221; 96 h post infection, vs vehicle", "result": 5.23, "unit": "fold"}, {"measurement": "IC50", "setting": "ER α-glucosidase I", "result": "0.14 ± 0.1", "unit": "µM"}, {"measurement": "fraction unbound at 6 h, 10 μM", "setting": "in vitro [9]", "result": 0.32}, {"measurement": "fraction unbound at 6 h, 10 μM", "setting": "in vitro [10]", "result": 0.36}, {"measurement": "IC50", "setting": "CYP3A4", "result": "> 100", "unit": "µM"}]}
